In ChEMBL document CHEMBL2331172, “Pyrrole and furan oligoglycosides from the starfish Asterina batheri and their inhibitory effect on the production of pro-inflammatory cytokines in lipopolysaccharide-stimulated bone marrow-derived dendritic cells” (Bioorg Med Chem Lett, 2013):

Legend:
Settings in all cases: bmdc
[1] = Cytotoxicity against wild-type C57BL/6 mouse BMDCs assessed as cell viability by MTT assay
[2] = Antiinflammatory activity in wild-type C57BL/6 mouse BMDCs assessed as inhibition of TNFalpha production incubated for 1 hr prior to LPS challenge measured after 16 hrs by ELISA; format: functional
[3] = Antiinflammatory activity in wild-type C57BL/6 mouse BMDCs assessed as inhibition of IL-6 production incubated for 1 hr prior to LPS challenge measured after 16 hrs by ELISA; format: functional
[4] = Antiinflammatory activity in wild-type C57BL/6 mouse BMDCs assessed as inhibition of IL-12 p40 production incubated for 1 hr prior to LPS challenge measured after 16 hrs by ELISA; format: functional

Row | IC50 [2] [µM] | IC50 [3] [µM] | IC50 [4] [µM] | Structure (SMILES) | Activity [1]
1 | > 50 | > 50 | > 50 | CC(=O)c1[nH]ccc1O[C@@H]1O[C@H](C)[C@@H](O[C@@H]2O[C@H](C)[C@H](O)[C@H](O[C@@H]3O[C@H](C)[C@H](O)[C@H](O)[C@H]3O)[C@H]2O)[C@H](O)[C@H]1O[C@@H]1O[C@H](C)[C@@H](O)[C@H](O)[C@H]1O | Non-toxic
2 | > 50 | > 50 | > 50 | CC(=O)c1[nH]ccc1O[C@@H]1O[C@H](C)[C@@H](O[C@@H]2O[C@H](C)[C@H](O)[C@H](O[C@@H]3O[C@H](C)[C@H](O)[C@H](O[C@@H]4O[C@@H](CO)[C@H](O)[C@H]4O)[C@H]3O)[C@H]2O)[C@H](O)[C@H]1O[C@@H]1O[C@H](C)[C@@H](O)[C@H](O)[C@H]1O [ASTEBATHERIOSIDE A] | Non-toxic
3 | – | – | 36.4 | CC(=O)c1[nH]ccc1O[C@@H]1O[C@H](C)[C@@H](O[C@H]2OC[C@H](O)[C@H](O)[C@H]2O[C@@H]2O[C@H](C)[C@H](O)[C@H](O[C@@H]3O[C@@H](CO)[C@H](O)[C@H]3O)[C@H]2O)[C@H](O)[C@H]1O[C@@H]1O[C@H](C)[C@@H](O)[C@H](O)[C@H]1O [ASTEBATHERIOSIDE B] | Non-toxic
4 | – | – | 31.6 | CC(=O)c1[nH]ccc1O[C@@H]1O[C@H](C)[C@@H](O)[C@H](O)[C@H]1O[C@@H]1O[C@H](C)[C@@H](O)[C@H](O)[C@H]1O [ASTEBATHERIOSIDE C] | Non-toxic
5 | – | – | 22.8 | CC(=O)c1occc1O[C@@H]1O[C@H](C)[C@@H](O[C@@H]2O[C@H](C)[C@H](O)[C@H](O[C@@H]3O[C@H](C)[C@H](O)[C@H](O)[C@H]3O)[C@H]2O)[C@H](O)[C@H]1O[C@@H]1O[C@H](C)[C@@H](O)[C@H](O)[C@H]1O [ASTEBATHERIOSIDE D] | Non-toxic

Row | Structure (SMILES) | IC50 [2] [µM] | IC50 [3] [µM] | IC50 [4] [µM] | Activity [1]
6 | C[S+]([O-])c1ccc(-c2nc(-c3ccc(F)cc3)c(-c3ccncc3)[nH]2)cc1 (stereo not given) [SB-203580] | – | – | 5 | –
